Source: patent publication US20250230193A1, “CYCLIC COMPOUND HAVING SELECTIVE KRAS INHIBITORY EFFECT ON HRAS AND NRAS” (CHUGAI SEIYAKU KABUSHIKI KAISHA, priority 2022, published 2025)
Where a SMILES comes first, the peptide text is derived from it. Bridges are numbered along the chain shown (N, C = ends). [ ]: non-standard residue; d: D form. The star is where a group is joined. hPhe(3-Cl-4-CF3) = N[C@@H](CCc1ccc(C(F)(F)F)c(Cl)c1)C(=O)O; NPrPhe(4-CF3) = CCCN[C@@H](Cc1ccc(C(F)(F)F)cc1)C(=O)O; Abu(4,4,4-F3) = N[C@@H](CC(F)(F)F)C(=O)O; NMeGly(cPent) = CN[C@H](C(=O)O)C1CCCC1; NMeD = CN[C@@H](CC(=O)O)C(=O)O; NMeL = CN[C@@H](CC(C)C)C(=O)O; Morpholide = C1CN(*)CCO1; NMeA = CN[C@@H](C)C(=O)O; Ac5c = NC1(C(=O)O)CCCC1; Aze = O=C(O)[C@@H]1CCN1; Sar = CNCC(=O)O

Tests used:
[1] = target: GDP-bound NRAS wild-type protein (Homo sapiens, UniProt P01111); test: Binding to NRAS by surface plasmon resonance (SPR), Single Cycle Kinetics; details: for NRAS/KRAS (ratio of KD value with respect to NRAS to KD value with respect to KRAS): GDP-bound NRAS wild-type vs GDP-bound KRAS wild-type; for NRAS/KRAS (ratio of KD value for GDP-bound NRAS wild-type protein to KD value for KRAS): KD ratio class
[2] = target: GDP-bound HRAS wild-type protein (Homo sapiens, UniProt P01112); test: Binding to HRAS by surface plasmon resonance (SPR), Single Cycle Kinetics; details: for HRAS/KRAS (ratio of KD value with respect to HRAS to KD value with respect to KRAS): GDP-bound HRAS wild-type vs GDP-bound KRAS wild-type; for HRAS/KRAS (ratio of KD value for GDP-bound HRAS wild-type protein to KD value for KRAS): KD ratio class
Chain of GDP-bound HRAS wild-type protein (P01112 whole entry): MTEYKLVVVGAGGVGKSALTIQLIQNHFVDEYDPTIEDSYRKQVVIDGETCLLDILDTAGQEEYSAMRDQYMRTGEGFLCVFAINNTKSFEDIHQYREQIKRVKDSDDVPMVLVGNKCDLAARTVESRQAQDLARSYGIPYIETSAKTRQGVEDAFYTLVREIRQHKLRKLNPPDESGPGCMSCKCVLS

Chain of GDP-bound NRAS wild-type protein (P01111 whole entry): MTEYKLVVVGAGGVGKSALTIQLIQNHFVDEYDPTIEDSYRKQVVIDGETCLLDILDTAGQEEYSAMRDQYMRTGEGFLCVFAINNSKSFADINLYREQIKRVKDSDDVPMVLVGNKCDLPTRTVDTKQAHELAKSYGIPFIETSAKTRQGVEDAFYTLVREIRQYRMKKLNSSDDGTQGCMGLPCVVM

SMILES: CCCN1C(=O)[C@@H]2CCN2C(=O)[C@H](C)N(C)C(=O)[C@H](CC(F)(F)F)NC(=O)[C@H](CC(C)C)N(C)C(=O)C[C@@H](C(=O)N2CCOCC2)N(C)C(=O)[C@H](C2CCCC2)N(C)C(=O)C2(CCCC2)NC(=O)[C@@H]2CCCN2C(=O)[C@H](CCc2ccc(C(F)(F)F)c(Cl)c2)NC(=O)CN(C)C(=O)[C@@H]1Cc1ccc(C(F)(F)F)cc1 [PP0270] ([NMeL][Abu(4,4,4-F3)][NMeA][Aze][NPrPhe(4-CF3)][Sar][hPhe(3-Cl-4-CF3)]P[Ac5c][NMeGly(cPent)][NMeD]-Morpholide; lactam N-11)
- NRAS/KRAS (ratio of KD for GDP-bound NRAS wild-type to KD for KRAS) ([1]; KD ratio NRAS/KRAS, SPR): C (A compound having a KD ratio of 0.1 or more and less than 3 is denoted as C)
- HRAS/KRAS (ratio of KD for GDP-bound HRAS wild-type to KD for KRAS) ([2]; KD ratio HRAS/KRAS, SPR): B (a compound having 3 or more and less than 10 is denoted as B)

SMILES: CC[C@H](C)[C@@H]1NC(=O)[C@H](C2CC2)N(C)C(=O)C[C@@H](C(=O)N(C)CC)N(C)C(=O)[C@H](C2CCCC2)N(C)C(=O)C2(CCC2)NC(=O)[C@@H]2C[C@H](C)CN2C(=O)[C@H](CCc2ccc(C(F)(F)F)c(OC)c2)NC(=O)CN(C)C(=O)[C@H](Cc2ccc(C(F)(F)F)cc2)N2CC/C=C\C[C@@H](C2=O)N(C)C(=O)CN(C)C1=O [PP2069]
- NRAS/KRAS (ratio of KD value with respect to NRAS to KD value with respect to KRAS) ([1]; SPR): AA (a compound having 20 or more is denoted as AA)
- HRAS/KRAS (ratio of KD value with respect to HRAS to KD value with respect to KRAS) ([2]; SPR): A (a compound having 10 or more and less than 20 is denoted as A)

SMILES: CCCCN1CC(=O)NC2(CCC2)C(=O)N(C)[C@@H](C2CCCC2)C(=O)N(C)[C@H](C(=O)N(C)C)CC(=O)N(C)[C@@H](CC)C(=O)N[C@@H]([C@@H](C)CC)C(=O)N(C)CC(=O)N(C)[C@H]2C/C=C\CCN(C2=O)[C@@H](Cc2ccc(C(F)(F)F)cc2)C(=O)N(C)CC(=O)N[C@@H](CCc2cc(F)c(C(F)(F)F)c(F)c2)C1=O [PP1142]
- NRAS/KRAS (ratio of KD value with respect to NRAS to KD value with respect to KRAS) ([1]; KD ratio, SPR): A (a compound having 10 or more and less than 20 is denoted as A)
- HRAS/KRAS (ratio of KD value with respect to HRAS to KD value with respect to KRAS) ([2]; KD ratio, SPR): A (a compound having 10 or more and less than 20 is denoted as A)

SMILES: CCC[C@H]1C(=O)N[C@@H]([C@@H](C)CC)C(=O)N(C2CC2)CC(=O)N(C)[C@H]2C/C=C\CCN(C2=O)[C@@H](Cc2ccc(C)cc2)C(=O)N(C)CC(=O)N[C@@H](CCc2cc(F)c(C(F)(F)F)c(F)c2)C(=O)N2C[C@H](OCC)C[C@H]2C(=O)NC2(CC(C)(C)C2)C(=O)N(C)[C@@H](CC(C)(C)C)C(=O)N(C)[C@H](C(=O)N(C)C)CC(=O)N1C [PP2718]
- NRAS/KRAS (ratio of KD value with respect to GDP-bound NRAS wild-type protein to KD value with respect to KRAS) ([1]; KD ratio NRAS/KRAS, class symbols): A (a compound having 10 or more and less than 20 is denoted as A)
- HRAS/KRAS (ratio of KD value with respect to GDP-bound HRAS wild-type protein to KD value with respect to KRAS) ([2]; KD ratio HRAS/KRAS, class symbols): A (a compound having 10 or more and less than 20 is denoted as A)

SMILES: CC[C@H](C)[C@@H]1NC(=O)[C@H](CC(C)C)N(C)C(=O)C[C@@H](C(=O)N2CCOCC2)N(C)C(=O)[C@H](C2CCCC2)N(C)C(=O)C2(CC(F)(F)C2)NC(=O)[C@@H]2CCCN2C(=O)[C@H](CCc2cc(F)c(C(F)(F)F)c(F)c2)NC(=O)CN(C)C(=O)[C@H](Cc2ccc(C(F)(F)F)cc2)N2CCCC[C@@H](C2=O)N(C)C(=O)CN(C)C1=O [PP0562]
- NRAS/KRAS (ratio of KD value with respect to GDP-bound NRAS wild-type protein to KD value with respect to KRAS) ([1]; KD ratio NRAS/KRAS, SPR): B (a compound having 3 or more and less than 10 is denoted as B)
- HRAS/KRAS (ratio of KD value with respect to GDP-bound HRAS wild-type protein to KD value with respect to KRAS) ([2]; KD ratio HRAS/KRAS, SPR): B (a compound having 3 or more and less than 10 is denoted as B)

SMILES: CCC[C@H]1C(=O)N[C@@H]([C@@H](C)CC)C(=O)N(C)CC(=O)N(C)[C@H]2C/C=C\CCN(C2=O)[C@@H](Cc2ccc(C(F)(F)F)cc2)C(=O)N(C)CC(=O)N[C@@H](CCc2cc(F)c(C(F)(F)F)c(F)c2)C(=O)N2C[C@H](OCC)C[C@H]2C(=O)NC2(CCC2)C(=O)N(C)[C@@H](C2CCCC2)C(=O)N(C)[C@H](C(=O)N(CC)CC)CC(=O)N1C [PP1310]
- NRAS/KRAS (ratio of KD value for GDP-bound NRAS wild-type protein to KD value for KRAS) ([1]; SPR): AA (a compound having 20 or more is denoted as AA)
- HRAS/KRAS (ratio of KD value for GDP-bound HRAS wild-type protein to KD value for KRAS) ([2]; SPR): A (a compound having 10 or more and less than 20 is denoted as A)

SMILES: CCC[C@H]1C(=O)N[C@@H]([C@@H](C)CC)C(=O)N(C)CC(=O)N(C)[C@H]2C/C=C\CCN(C2=O)[C@@H](Cc2ccc(C(F)(F)F)cc2)C(=O)N(C)CC(=O)N[C@@H](CCc2cc(F)c(C(F)(F)F)c(F)c2)C(=O)N2C[C@H](OCC)C[C@H]2C(=O)NC2(CCC2)C(=O)N(C)[C@@H](C2CCCC2)C(=O)N(C)[C@H](C(=O)N(C)CC)CC(=O)N1C [PP1304]
- NRAS/KRAS (ratio of KD value for GDP-bound NRAS wild-type protein to KD value for KRAS) ([1]; SPR): A (a compound having 10 or more and less than 20 is denoted as A)
- HRAS/KRAS (ratio of KD value for GDP-bound HRAS wild-type protein to KD value for KRAS) ([2]; SPR): A (a compound having 10 or more and less than 20 is denoted as A)
